From patent publication US8835395B2, “Protein peptide hydrogels” (Kansas State University Research Foundation, priority 2010, dated 2014)
Where a SMILES comes first, the peptide text is derived from it.

Test: Solubility of peptide in neutral water
Assay type: physicochemical
Settings: neutral water without any pH adjustment

Question: With `CC[C@H](C)[C@H](NC(=O)[C@H](CC(C)C)NC(=O)[C@@H](N)Cc1ccccc1)C(=O)N[C@H](C(=O)N[C@H](C(=O)N1CCC[C@H]1C(=O)N1CCC[C@@H]1C(=O)NCC(=O)N1CCC[C@H]1C(=O)NCC(=O)NCC(=O)N[C@@H](CC(=O)O)C(=O)NCC(=O)N1CCC[C@H]1C(=O)NCC(=O)NCC(=O)N[C@@H](CC(=O)O)C(=O)O)[C@@H](C)CC)C(C)C` [h5PP^De, FLIVI-PP^D-GPGGDGPGGD] (HELM PEPTIDE1{F.L.I.V.I.P.[dP].G.P.G.G.D.G.P.G.G.D}$$$$V2.0) as the compound, how does the Solubility in water read?
Answer: The Solubility in water was “soluble”.
